Results as given in US6693189B2, “Materials and method for treating or preventing pathogenic fungal infection” (Ariad Gene Therapeutics, Inc., priority 1996, dated 2004).
Like-named read-outs stand apart in the source and are kept apart here.

Experiments:
human FKBP12 = human FKBP12 (Homo sapiens, UniProt P62942); experiment: competitive fluorescence polarization (FP) FKBP binding assay; details: for fold loss in affinity (cf rapamycin) / fold loss in affinity (vs rapamycin): =IC50/IC50 of rapamycin; for fold loss in affinity (cf rapamycin): C7 rapalogs; for fold loss in affinity (vs rapamycin): C24 oximes
[1] = system: Aspergillus fumigatus clinical isolates; experiment: broth macrodilution antifungal assay, Aspergillus fumigatus; format: cell-based; details: III = Asp fumigatus; ratio of relative antifungal to relative immunosuppressive activity
[2] = system: Cryptococcus neoformans clinical isolates; experiment: broth macrodilution antifungal assay, Cryptococcus neoformans; format: cell-based; details: ratio of relative antifungal to relative immunosuppressive activity
[3] = system: Candida albicans clinical isolates; experiment: broth macrodilution antifungal assay, C. albicans; format: cell-based; details: ratio of relative antifungal to relative immunosuppressive activity
[4] = read-out: FKBP wt FP binding assay IC50, rapamycin C24 oximes, competition with fluoresceinated FK506 probe AP1491

Sequence of human FKBP12 (P62942 whole entry): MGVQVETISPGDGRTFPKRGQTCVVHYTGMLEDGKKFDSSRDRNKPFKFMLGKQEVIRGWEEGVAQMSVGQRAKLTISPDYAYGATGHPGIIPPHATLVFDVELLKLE

Row | fold loss in affinity (vs rapamycin) (human FKBP12) | IC50 (human FKBP12; [4]) [nM] | Compound | fold loss in affinity (cf rapamycin) (human FKBP12) | other results
1 | 1287 | 2960 | CCON=C1CC(C(C)CC2CCC(O)C(OC)C2)OC(=O)C2CCCCN2C(=O)C(=O)C2(O)OC(CCC2C)CC(OC)C(C)=CC=CC=CC(C)CC(C)C(=O)C(OC)C(O)C(C)=CC1C (stereo not drawn) [Compound 7, Rapamycin (E and Z)-24-(O-ethyloxime)] | – | –
2 | >13043 | > 30000 | COC1CC2CCC(C)C(O)(O2)C(=O)C(=O)N2CCCCC2C(=O)OC(C(C)CC2CCC(O)C(OC)C2)CC(=NOC(C)(C)C)C(C)C=C(C)C(O)C(OC)C(=O)C(C)CC(C)C=CC=CC=C1C (stereo not drawn) [Compound 19] | – | –
3 | 3627 | – | CO[C@H]1C[C@@H]2CC[C@@H](C)[C@@](O)(O2)C(=O)C(=O)N2CCCC[C@H]2C(=O)O[C@H]([C@H](C)C[C@@H]2CC[C@@H](O)[C@H](OC)C2)C/C(=N/OCc2ccccc2)[C@H](C)/C=C(\C)[C@@H](O)[C@@H](OC)C(=O)[C@H](C)C[C@H](C)/C=C/C=C/C=C/1C [Compound 11, Rapamycin (E and Z)-24-(O-benzyloxime)] | – | IC50 (human FKBP12): 8340 nM
4 | 616 | 1420 | COC1CC2CCC(C)C(O)(O2)C(=O)C(=O)N2CCCCC2C(=O)OC(C(C)CC2CCC(O)C(OC)C2)CC(=NOCc2ccccc2)C(C)C=C(C)C(O)C(OC)C(=O)C(C)CC(C)C=CC=CC=C1C (stereo not drawn) [Compound 12, Rapamycin (E and Z)-24-(O-benzyloxime)] | – | –

More lines, now with the values behind:

Row | Compound | fold loss in affinity (vs rapamycin) (human FKBP12) | IC50 (human FKBP12; [4]) [nM] | fold loss in affinity (cf rapamycin) (human FKBP12) | other results
5 | COC1CC(CC(C)C2CC(=O)C(C)C=C(C)C(O)C(OC)C(=O)C(C)CC(C)C=CC=CC=C(C)C(c3ccc(C)s3)CC3CCC(C)C(O)(O3)C(=O)C(=O)N3CCCCC3C(=O)O2)CCC1O (stereo not drawn) [Compound 36] | – | – | 1.6 | –
6 | CCOC1C[C@@H]2CC[C@@H](C)[C@@](O)(O2)C(=O)C(=O)N2CCCC[C@H]2C(=O)O[C@H]([C@H](C)C[C@@H]2CC[C@@H](O)[C@H](OC)C2)CC(=O)[C@H](C)/C=C(\C)[C@@H](O)[C@@H](OC)C(=O)[C@H](C)C[C@H](C)/C=C/C=C/C=C/1C (stereo partly drawn) [Compound 28] | – | – | 1.6 | –
7 | CCOC1C[C@@H]2CC[C@@H](C)[C@@](O)(O2)C(=O)C(=O)N2CCCC[C@H]2C(=O)O[C@H]([C@H](C)C[C@@H]2CC[C@@H](O)[C@H](OC)C2)CC(=O)[C@H](C)/C=C(\C)[C@@H](O)[C@@H](OC)C(=O)[C@H](C)C[C@H](C)/C=C/C=C/C=C/1C (stereo partly drawn) [Compound 27] | – | – | 1.1 | –
8 | COC1CC(CC(C)C2CC(=O)C(C)C=C(C)C(O)C(OC)C(=O)C(C)CC(C)C=CC=CC=C(C)C(c3ccc(C)s3)CC3CCC(C)C(O)(O3)C(=O)C(=O)N3CCCCC3C(=O)O2)CCC1O (stereo not drawn) [Compound 37] | – | – | 1.9 | –
9 | CO[C@H]1C[C@@H]2CC[C@@H](C)[C@@](O)(O2)C(=O)C(=O)N2CCCC[C@H]2C(=O)O[C@H]([C@H](C)C[C@@H]2CC[C@@H](O)[C@H](OC)C2)CC(=O)[C@H](C)/C=C(\C)[C@@H](O)[C@@H](OC)C(=O)[C@H](C)C[C@H](C)/C=C/C=C/C=C/1C [rapamycin, Rapamycin] | – | – | – | AF/IS III [1]: 1; AF/IS II [2]: 1; AF/IS I [3]: 1
